{
  "source": "patent US10232043B2",
  "about": "“Photoactivated molecules for light-induced modulation of the activity of electrically excitable cells and methods of using the same” (UNIVERSITY OF SOUTHERN CALIFORNIA, priority 2015, dated 2019)",
  "key": {"[1]": {"tested_on": "HEK cells", "experiment": "Membrane incorporation of Rubpy-C17 analogues", "type": "cell-based", "conditions": "FIGS. 6A-6C, 7A-7B", "from_the_text": "In some examples, RubpyC17 can be changed to provide a non-toxic, faster, and highly reversible system that imparts light sensitivity in multiple biological systems. In some embodiments, changing of bipyridine substituents (as shown in as illustrated in FIG. 3) can result in a Ru^3+/2+ reduction potential dynamic range of several hundred millivolts. […] In some examples, the carboxylic acid substituents probe the mechanistic role of charge in the photovoltaic nanoswitch system in addition to the role of the reduction potential. FIGS. 5A-5D illustrates an embodiment of various substituents in place of RubpyC17 in HEK cells. For example, FIG. 5A illustrates TMbpyRubpyC17(PF6) substituted for RubpyC17; FIG. 5B illustrates TMbpyRubpyC17(Cl) substituted for RubpyC17; FIG. 5C illustrates COOHbpyRubpyC17(Na) substituted for RubpyC17; and FIG. 5C illustrates COOHbpyRubpyC17(tBu4N+) substituted for RubpyC17.\nIn some examples, the RubpyC17 molecule can be configured for non-specific targeting and optimized membrane incorporation of photoactive molecular artificial retinas (“MARs”).\nIn some embodiments, membrane incorporation can be an important characteristic of the current system. In some embodiments, changing the counter ion identity of Rubpy-C17 can help to change membrane incorporation properties. […] FIG. 7C illustrates the effect that a treatment of 1 μM of Rubpy-Oleic Acid has on HEK cells while FIG. 7D illustrates the effect that a treatment of 10 μM of Rubpy-Linoleic Acid has on HEK cells."}, "[2]": {"tested_on": "HEK293T cells", "experiment": "Effect of PF6:Cl counter ion ratio of Rubpy-C17 on HEK293T cells", "type": "cell-based", "conditions": "for membrane incorporation: 10 minutes; for Comments (compound stability): degradation seen after two months", "protocol": "In some embodiments, the 20 mg of Rubpy-C17 is stored in −20° C. with desiccant in the dark. […] 253 μl of DMSO is then added into the original bottle containing Rubpy-C17 to make 100 mM stock solution. In some embodiments, the stock solution is aliquot and stored in −20° C. with desiccant in the dark.\nIn some examples, on the day before or on, the same day of the experiment, the following 2.5 mM external solution is prepared using the following steps. The external solution is warmed up to 37° C. For […] of the external solution, 0.176 grams of absorbic acid was added. Another 240 μL 5M NaOH was added to adjust the pH to between about 7.2-7.4. The absorbic solution can then be filtered through a 0.2 μm filter. The solution is then stored in the dark in 4° C. In some examples, the solution must be used within one week.\nThe 100 mM of Rubpy solution is first thawed from −20° C. 100 mM Rubpy is then diluted to 10 mM Rubpy: 2 μL 100 mM Rubpy+18 μL DMSO. In some examples, this is vortexted to mix and then centrifuged down with a small bench-top. The culture, medium is aspirated and the cells are rinsed with external solution several times. The external solution can then be aspirated. In some examples, enough of the external solution is left on the cells to prevent it from drying. 500 μL of external solution with 2.5 mM of ascorbic acid can then be added.\nIn some examples, 1 μL of 10 mM of Rubpy to […] of external solution with 2.5 mM ascorbic acid and mixed well. This should produce a final concentration of 10 μM of Rubpy with 0.1% DMSO. This mixed solution is then added to the above referenced cells and incubated for 10 minutes.\nThe solution can then be aspirated from the plate and rinsed with regular external solution several times. 2 mL of external solution is added to 2.5 mM ascorbic acid for recording. For each plate, a baseline control is taken by recording the first cell before performing any light-stimulating protocol. The light-stimulus can include 10-40 s in duration and bandpassed at 455-495 nm (blue light).\nAs discussed above, the mixture a 10 μM of RubpyC17 solution was placed in 10 HEK293T cells."}, "[3]": {"experiment": "Time-resolved luminescence and electron transfer of D-B-A complex", "type": "physicochemical", "conditions": "degassed dichloromethane, excited at 355 nm, monitored at 560 nm", "protocol": "Time-resolved emission spectroscopy was used to characterize the MLCT excited state of the D-B-A complex (see FIGS. 24A and 24B). Luminescence decay kinetics were recorded in degassed dichloromethane. The D-B-A complex was excited at 355 nm with an 8-ns laser pulse and luminescence was monitored at 560 nm. […] For comparison, the MLCT lifetime of the reference complex, [Re(CO)3(bpy)(py)]+, determined under identical experimental conditions, is 550 ns.\nSelf-association often leads to enhanced quenching, due to the formation of aggregates with short intermolecular donor-acceptor distances.\nWhile the rate of intramolecular electron transfer is concentration independent, intermolecular quenching processes vary predictably with concentration. As such, it is possible to separate the two quenching mechanisms and obtain rate constants for each. Time-resolved luminescence measurements at a series of D-B-A concentrations allow a second order intermolecular quenching rate to be determined. As the concentration was increased, shorter lifetimes were recorded in both dichloromethane and acetonitrile. […]\nIntramolecular electron transfer may also proceed through a through-space coupling mechanism. […] If β values in this range are used, the through-solvent intramolecular electron transfer rate is predicted to fall between 10^4 and 10^6 s^−1, which is competitive with calculated through-bond tunneling rates."}, "[4]": {"tested_on": "chromaffin cells", "experiment": "Cell-attached patch test for membrane perforation", "type": "cell-based, mouse", "conditions": "in patch pipette, RubpyC17 18 μM, 10 min, amphotericin B within 5 min", "from_the_text": "FIGS. 21A-21H depict data from various experiments related to characteristics of RubpyC17-loaded cells. […] Inset images shown to the right of trace confirmed proper integration of RubpyC17 in patched cells. FIGS. 21C-21E show the light-induced action potential firing in chromaffin cells was not due to biophysical changes in voltage-gated ion channels as there were no significant changes in current-voltage relationships (21C-21D) nor in steady-state activation curve (21E) in RubpyC17-loaded chromaffin cells before (open circle) or during (open circle) light illumination. […] Peak inward currents from each stimulation jump were plotted against corresponding stimulating voltages (n=6). […] Data from representative cell is shown (n=5). […] Currents resulting from capacitor-like behavior of chromaffin cell membranes during hyperpolarizing jumps to −85 mV from a resting membrane potential of −80 mV were recorded 5 min following giga-seal formation for amphoterecin B (bottom trace) or 10 min following giga-seal formation for RubpyC17 (top trace).\nFinally, to test whether illumination of RubpyC17 incorporated in cell membranes causes nonspecific membrane poration or other damage, 18 μM RubpyC17 was loaded inside a patch pipette and attached to a cell (gigaseal formation) in the cell-attached configuration. This is the same configuration used routinely for perforated-patch recording. […]"}, "[5]": {"molecular_target": "Nav1.6 (Homo sapiens, UniProt Q9UQD0)", "sequence (Q9UQD0 whole entry, the tested form may be a part)": "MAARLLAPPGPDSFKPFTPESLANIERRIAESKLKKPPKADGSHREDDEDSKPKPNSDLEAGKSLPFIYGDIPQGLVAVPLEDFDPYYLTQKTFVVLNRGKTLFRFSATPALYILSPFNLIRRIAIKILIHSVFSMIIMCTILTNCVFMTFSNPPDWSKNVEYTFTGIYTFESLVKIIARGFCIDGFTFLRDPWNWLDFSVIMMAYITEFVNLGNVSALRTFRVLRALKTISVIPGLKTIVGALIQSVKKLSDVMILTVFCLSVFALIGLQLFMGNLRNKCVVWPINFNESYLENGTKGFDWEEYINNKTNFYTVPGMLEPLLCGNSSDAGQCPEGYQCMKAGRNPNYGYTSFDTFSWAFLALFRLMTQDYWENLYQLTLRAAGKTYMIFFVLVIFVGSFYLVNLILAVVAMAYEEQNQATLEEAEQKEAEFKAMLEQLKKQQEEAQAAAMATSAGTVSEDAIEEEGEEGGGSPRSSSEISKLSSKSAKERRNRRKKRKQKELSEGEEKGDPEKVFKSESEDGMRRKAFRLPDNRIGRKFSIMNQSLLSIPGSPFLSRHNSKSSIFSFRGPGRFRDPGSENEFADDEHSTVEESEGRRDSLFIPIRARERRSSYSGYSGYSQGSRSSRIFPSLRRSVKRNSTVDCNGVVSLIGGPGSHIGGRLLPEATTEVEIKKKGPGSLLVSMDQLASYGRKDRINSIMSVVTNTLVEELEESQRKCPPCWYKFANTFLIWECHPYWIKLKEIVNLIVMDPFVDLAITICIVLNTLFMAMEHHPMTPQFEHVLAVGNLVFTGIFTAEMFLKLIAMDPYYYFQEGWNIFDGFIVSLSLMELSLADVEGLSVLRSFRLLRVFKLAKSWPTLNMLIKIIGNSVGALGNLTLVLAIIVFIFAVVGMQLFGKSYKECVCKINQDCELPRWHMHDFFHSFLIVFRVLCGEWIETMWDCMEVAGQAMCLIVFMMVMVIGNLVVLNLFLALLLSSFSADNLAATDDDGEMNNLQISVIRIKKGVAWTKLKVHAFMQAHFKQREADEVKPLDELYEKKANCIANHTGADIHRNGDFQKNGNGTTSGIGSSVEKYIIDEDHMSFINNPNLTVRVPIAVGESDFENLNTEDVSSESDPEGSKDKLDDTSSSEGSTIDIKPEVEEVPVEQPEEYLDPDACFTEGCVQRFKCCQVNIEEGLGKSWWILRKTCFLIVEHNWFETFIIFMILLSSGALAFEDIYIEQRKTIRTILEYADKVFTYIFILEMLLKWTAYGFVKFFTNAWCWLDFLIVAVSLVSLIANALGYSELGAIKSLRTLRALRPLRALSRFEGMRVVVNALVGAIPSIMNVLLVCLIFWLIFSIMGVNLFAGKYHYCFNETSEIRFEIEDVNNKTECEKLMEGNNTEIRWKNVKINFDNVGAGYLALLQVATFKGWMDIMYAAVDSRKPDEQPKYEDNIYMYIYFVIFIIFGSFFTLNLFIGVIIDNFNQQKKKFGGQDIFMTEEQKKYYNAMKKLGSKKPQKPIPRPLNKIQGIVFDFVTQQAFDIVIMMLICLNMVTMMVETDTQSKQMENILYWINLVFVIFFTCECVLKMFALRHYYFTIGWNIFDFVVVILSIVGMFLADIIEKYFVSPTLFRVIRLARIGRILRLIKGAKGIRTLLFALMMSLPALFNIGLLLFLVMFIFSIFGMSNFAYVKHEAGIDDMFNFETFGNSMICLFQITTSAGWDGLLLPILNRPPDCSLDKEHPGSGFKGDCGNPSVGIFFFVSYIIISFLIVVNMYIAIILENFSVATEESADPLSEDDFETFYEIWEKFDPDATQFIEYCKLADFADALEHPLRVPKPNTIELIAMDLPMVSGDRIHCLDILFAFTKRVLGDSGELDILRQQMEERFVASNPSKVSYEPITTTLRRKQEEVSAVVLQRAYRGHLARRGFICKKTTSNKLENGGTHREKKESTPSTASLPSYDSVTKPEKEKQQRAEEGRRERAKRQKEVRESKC", "conditions": "extracellular loop S1-S2 and S3-S4 in domain II; cited from earlier work"}},
  "note": "Entries after “also recorded” stand apart in the source; their conditions may differ.",
  "data": [
    {"compound": "CCCCCCCCCCCCCCCCCc1ccnc(-c2cc(C)ccn2)c1.[Cl-].[Cl-].[Ru+2].c1ccc(-c2ccccn2)nc1.c1ccc(-c2ccccn2)nc1", "note": "[PF6:Cl 0:1]", "values": [
      {"measurement": "membrane incorporation", "setting": "[1]", "result": "exceptional membrane incorporation"},
      {"measurement": "Cell Death", "setting": "[2]; 10 μM, HEK293T cells", "result": "cell death was observed"},
      {"measurement": "membrane incorporation", "setting": "[2]; 10 μM, HEK293T cells", "result": "even incorporation"},
      {"measurement": "membrane incorporation", "setting": "[2]; 10 μM, HEK293T cells, listed as Rubpy-C17 with only CL Counter ions", "result": "good membrane incorporation was initially observed"},
      {"measurement": "Comments (compound stability)", "setting": "[2]", "result": "subsequent degradation was observed after two months; also recorded: Unstable,"},
      {"measurement": "Comments (compound stability)", "setting": "[2]; listed as Rubpy-C17 with only CL Counter ions", "result": "compound degradation was seen subsequently after two months"}
    ]},
    {"compound": "CCCCCCCC/C=C\\CCCCCCCC(=O)Nc1cc2cccnc2c2ncccc12.[Ru+2].c1ccc(-c2ccccn2)nc1.c1ccc(-c2ccccn2)nc1", "note": "[Ruphen-C18:1]", "values": [
      {"measurement": "membrane incorporation", "setting": "[1]", "result": "exceptional membrane incorporation; also recorded: excellent membrane incorporation"}
    ]},
    {"compound": "CCCCC/C=C\\C/C=C\\CCCCCCCC(=O)Nc1cc2cccnc2c2ncccc12.[Ru+2].c1ccc(-c2ccccn2)nc1.c1ccc(-c2ccccn2)nc1", "note": "[Ruphen-C18:2]", "values": [
      {"measurement": "membrane incorporation", "setting": "[1]", "result": "excellent membrane incorporation"}
    ]},
    {"compound": "[C-]#[O+].[C-]#[O+].[C-]#[O+].[Re+].c1ccc(-c2ccccn2)nc1.c1ccncc1", "note": "[[Re(CO)3(bpy)(py)]+]", "values": [
      {"measurement": "luminescence (MLCT) lifetime", "setting": "[3]", "result": 550, "unit": "ns"}
    ]},
    {"compound": "C[C@@H]1[C@H](O)[C@@H](C)/C=C/C=C/C=C/C=C/C=C/C=C/C=C/[C@H](O[C@@H]2O[C@H](C)[C@@H](O)[C@H](N)[C@@H]2O)C[C@@H]2O[C@](O)(C[C@@H](O)C[C@@H](O)[C@H](O)CC[C@@H](O)C[C@@H](O)CC(=O)O[C@H]1C)C[C@H](O)[C@H]2C(=O)O", "note": "[amphotericin B, reference compound]", "values": [
      {"measurement": "capacitive charging transient (membrane perforation)", "setting": "[4]", "result": "sizable capacitive charging transient"}
    ]},
    {"compound": "CCCCCCCCCCCCCCCCCc1ccnc(-c2cc(C)ccn2)c1.Cc1cnc(-c2cc(C)c(C)cn2)cc1C.Cc1cnc(-c2cc(C)c(C)cn2)cc1C.[Ru+2]", "note": "[tetramethyl-substituted bpy Rubpy-C17]", "values": [
      {"measurement": "membrane incorporation", "setting": "[1]", "result": "does not evenly incorporate"}
    ]},
    {"compound": "CssII", "values": [
      {"measurement": "binding affinity", "setting": "[5]", "result": "nanomolar affinity"}
    ]}
  ]
}
